# Tested on: plants
# Experiment: Test D post-emergence, other plants of Tables D2 and D4
# Assay type: in vivo
# In short: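 Damage was rated visually from 0 (none) to 100 (total), at 20 DAA for pre-emergence and 15 d for post-emergence. Plants grew from safener-treated seed in a glasshouse at 24/18° C. or 20/16° C. day/night, 65% humidity, watered twice daily.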
# [1] = "Cereals" Postemergent, Rates 130, evaluated after 15 d
# [2] = "Cereals" Postemergent, Rates 250, evaluated after 15 d
# [3] = "Cereals" Postemergent, Rates 500, evaluated after 15 d
# [4] = post-emergence, rate 130, evaluated after 15 d
# [5] = post-emergence, rate 250, evaluated after 15 d
# [6] = post-emergence, rate 500, evaluated after 15 d
smiles,measurement,setting,value
COc1c(F)cccc1NC(=O)C1C(=O)N(C)CC1c1cc(C(F)(F)F)n(C)n1 (racemic) [Compound 18],ALOMY damage rating (100=total damage to plant; 0=no damage to plant),[1],10
same,ALOMY damage rating (100=total damage to plant; 0=no damage to plant),[2],30
same,ALOMY damage rating (100=total damage to plant; 0=no damage to plant),[3],40
same,AVEFA damage rating (100=total damage to plant; 0=no damage to plant),[1],0
same,AVEFA damage rating (100=total damage to plant; 0=no damage to plant),[2],20
same,AVEFA damage rating (100=total damage to plant; 0=no damage to plant),[3],40
same,BEAVA damage rating (100=total damage to plant; 0=no damage to plant),[1],0
same,BEAVA damage rating (100=total damage to plant; 0=no damage to plant),[2],0
same,BEAVA damage rating (100=total damage to plant; 0=no damage to plant),[3],0
same,BROTE damage rating (100=total damage to plant; 0=no damage to plant),[1],0
same,BROTE damage rating (100=total damage to plant; 0=no damage to plant),[2],0
same,BROTE damage rating (100=total damage to plant; 0=no damage to plant),[3],0
same,BRSNN damage rating (100=total damage to plant; 0=no damage to plant),[1],10
same,BRSNN damage rating (100=total damage to plant; 0=no damage to plant),[2],10
same,BRSNN damage rating (100=total damage to plant; 0=no damage to plant),[3],20
same,CHEAL damage rating (100=total damage to plant; 0=no damage to plant),[1],0
same,CHEAL damage rating (100=total damage to plant; 0=no damage to plant),[2],0
same,CHEAL damage rating (100=total damage to plant; 0=no damage to plant),[3],20
same,GALAP damage rating (100=total damage to plant; 0=no damage to plant),[1],0
same,GALAP damage rating (100=total damage to plant; 0=no damage to plant),[2],0
same,GALAP damage rating (100=total damage to plant; 0=no damage to plant),[3],40
same,HORVW damage rating (100=total damage to plant; 0=no damage to plant),[1],0
same,HORVW damage rating (100=total damage to plant; 0=no damage to plant),[2],30
same,HORVW damage rating (100=total damage to plant; 0=no damage to plant),[3],50
same,KCHSC damage rating (100=total damage to plant; 0=no damage to plant),[1],0
same,KCHSC damage rating (100=total damage to plant; 0=no damage to plant),[2],0
same,KCHSC damage rating (100=total damage to plant; 0=no damage to plant),[3],0
same,LOLPE damage rating (100=total damage to plant; 0=no damage to plant),[1],0
same,LOLPE damage rating (100=total damage to plant; 0=no damage to plant),[2],0
same,LOLPE damage rating (100=total damage to plant; 0=no damage to plant),[3],10
same,POAAN damage rating (100=total damage to plant; 0=no damage to plant),[1],0
same,POAAN damage rating (100=total damage to plant; 0=no damage to plant),[2],50
same,POAAN damage rating (100=total damage to plant; 0=no damage to plant),[3],70
same,POLCO damage rating (100=total damage to plant; 0=no damage to plant),[1],0
same,POLCO damage rating (100=total damage to plant; 0=no damage to plant),[2],0
same,POLCO damage rating (100=total damage to plant; 0=no damage to plant),[3],0
same,SINAR damage rating (100=total damage to plant; 0=no damage to plant),"SINAR, ""Cereals"" Postemergent, Rates 500, evaluated after 15 d",40
same,STEME damage rating (100=total damage to plant; 0=no damage to plant),[1],0
same,STEME damage rating (100=total damage to plant; 0=no damage to plant),[2],0
same,STEME damage rating (100=total damage to plant; 0=no damage to plant),[3],20
same,VERPE damage rating (100=total damage to plant; 0=no damage to plant),[1],0
same,VERPE damage rating (100=total damage to plant; 0=no damage to plant),[2],0
same,VERPE damage rating (100=total damage to plant; 0=no damage to plant),[3],40
same,"damage to plant (100=total damage to plant; 0=no damage to plant), ABUTH",[4],0
same,"damage to plant (100=total damage to plant; 0=no damage to plant), ABUTH",[5],0
same,"damage to plant (100=total damage to plant; 0=no damage to plant), ABUTH",[6],30
same,"damage to plant (100=total damage to plant; 0=no damage to plant), AMARE",[4],0
same,"damage to plant (100=total damage to plant; 0=no damage to plant), AMARE",[5],10
same,"damage to plant (100=total damage to plant; 0=no damage to plant), AMARE",[6],20
same,"damage to plant (100=total damage to plant; 0=no damage to plant), BIDPI","post-emergence, BIDPI, rate 130, evaluated after 15 d",0
